Measured values reported in patent US20220401460A1, “MODULATING RESISTANCE TO BCL-2 INHIBITORS” (Dana-Farber Cancer Institute, Inc., priority 2018, published 2022).
Residues, ends and D or L forms follow the SMILES beside them. *: point of attachment. Cbz = O=C(OCc1ccccc1)*; CH2F = FC*

Key:
OCI-Ly1-S cells [1] = experiment: Cell Titer-Glo viability assay and Chou-Talalay synergy analysis, parental OCI-Ly1-S cells; type: cell-based, human
OCI-Ly1-R cells = experiment: Cell Titer-Glo viability assay, venetoclax-resistant OCI-Ly1-R cells; type: cell-based, human; details: for restoration of venetoclax sensitivity: combination with venetoclax, OCI-Ly1-R cells
[2] = test system: knockout and overexpression OCI-Ly1 cell lines; experiment: Viability/growth of single-gene knockout and overexpression OCI-Ly1 cell lines; type: cell-based, human; details: individual knockout cell lines vs lines transduced with 2 non-targeting control sgRNAs; P<0.05
Experimental: (§1) Cell viability assay. The Cell Titer-Glo Luminescent Cell Viability Assay (Promega) was used to determine the relative number of viable cells after drug treatment. 0.2×10^6 cells/mL were seeded in a 24 well-plate and treated with drugs for 24 or 48 hours. The viability assay was conducted using the manufacturer's protocol after treatment. Values were normalized to DMSO-treated cells. Plates were read on a SpectraMax M3 reader (Molecular Devices).
Cloning of sgRNA vectors. […]
Generation of engineered cell lines. […] As confirmation that the engineered cell lines expressed the expected alterations, Applicants: (i) evaluated the expression of the targeted protein by western-blotting (FIG. 6d), and (ii) for the CRISPR-Cas9 engineered cell lines, performed targeted DNA sequencing for the CRISPR target sites before and after 2 weeks of exposure to venetoclax (100 nM), and assessed the proportion of frameshift indels (FIG. 6g). […] Following PCR, samples were purified with Agencourt AMPure XP beads (Beckman Coulter) and quantified on a Bioanalyzer (Agilent) with High Sensitivity DNA chips. Sample libraries were diluted to 4 nM, pooled, and ran on the Illumina MiSeq platform using single-end sequencing with the following parameters: read 1: 296nt, index 1: 6nt.

OCI-Ly1-S cells [3] = experiment: Seahorse oxygen consumption (OCR) and extracellular acidification rate (ECAR), OCI-Ly1-S; type: cell-based, human
Experimental: Measurement of oxygen consumption and extracellular acidification rate. For each condition, 1.25×10^5 cells were counted and plated on a Seahorse plate coated with Cell-Tak (Corning Life Sciences) in Seahorse XF DMEM media (Agilent). OCR and ECAR were recorded using a Seahorse XF96 Analyzer (Agilent) for 24 consecutive measurements. OCR is measured before and after the addition of inhibitors to assess mitochondrial function by deriving several parameters of mitochondrial respiration: (i) basal respiration, (ii) ATP-linked respiration and proton leak respiration (after 3 μM oligomycin [Sigma], a complex V inhibitor) and (iii) maximal respiration (after 1 μM carbonyl cyanide m-chlorophenyl hydrazine (CCCP) [Sigma], a protonophore).
To measure the effect of venetoclax on OCR/ECAR, cells were pre-treated for 1 h with […] of zVAD-FMK (Abcam) or left untreated and OCR/ECAR were recorded for 4 measurements before injection of venetoclax at a final concentration of 100 nM. DMSO injection was used as control.

CLL patients = CLL patients treated with venetoclax in clinical trials (response, progression); type: in vivo, human
Excerpt: Human samples. Genomic DNA was isolated (DNAeasy Blood and Tissue Kit, Qiagen) from specimens collected from CLL patients enrolled on clinical trials of venetoclax treatment (NCT01328626, NCT02141282), approved by and conducted in accordance with the principles of the Declaration of Helsinki and with the approval of the Institutional Review Boards (IRB) of the University of Texas/MD Anderson Cancer Center (MDACC; Patients 1, 3, 4) or of Dana-Farber Cancer Institute (DFCI; Patient 2, 5, 6). Blood and/or tissue tumor samples were collected at baseline, before initiation of venetoclax therapy, and at relapse or progression on venetoclax.

[4] = test system: ID3 knockout OCI-Ly1 cells; experiment: Viability of single-cell clones from ID3 knockout OCI-Ly1 cells; type: cell-based, human; details: single cell clones from ID3 knockout line, viability at 24 hours
Experimental: as §1
Single-cell cloning of the ID3 knockout. OCI-Ly1 cells was performed using […] dilution strategy. Cells from the bulk ID3 OCI-Ly1 were seeded at a concentration of 0.5 cells/well in a 96-well plate (5 plates per cell line). To investigate the presence of mutations, 6 clones per sgRNA were analyzed by PCR and Sanger sequencing using primers flanking the target sites for the sgRNAs (Forward primer: 5′-[…]-3′ (SEQ ID NO:1); Reverse:5′-[…]-3′ (SEQ ID NO:2)). The absence of ID3 protein were confirmed in clones harboring loss-of-function mutations by western blot (FIG. 8d). Three different knockout single-cell clones for each sgRNA were used for further functional studies.

[5] = 6 CLL patients progressing on venetoclax

Compound: CC1(C)CCC(CN2CCN(c3ccc(C(=O)NS(=O)(=O)c4ccc(NCC5CCOCC5)c([N+](=O)[O-])c4)c(Oc4cnc5[nH]ccc5c4)c3)CC2)=C(c2ccc(Cl)cc2)C1 [venetoclax]
- IC50 (OCI-Ly1-S cells [1]; Homo sapiens, parental OCI-Ly1-S cells): 4 nM
- IC50 (OCI-Ly1-R cells; Homo sapiens, OCI-Ly1-R cells generated by chronic in vitro drug exposure): 1000 nM
- median increase in IC50 [2]: 2.1 fold
- decrease in oxygen consumption (OCI-Ly1-S cells [3]; OCI-Ly1-S cells, within 20 minutes after drug exposure, venetoclax 100 nM): 2 fold
- median time to relapse (CLL patients; [5]): 16.4 months
- range of time to relapse (CLL patients; [5]): 5.1-22.8 months
- Time to progression (months) (CLL patients; Patient 1, daily dose 400 mg): 22.8 months
- Time to progression (months) (CLL patients; Patient 2, daily dose 400 mg): 7.1 months
- Time to progression (months) (CLL patients; Patient 3, daily dose 400 mg): 16.4 months
- Time to progression (months) (CLL patients; Patient 4, daily dose 400 mg): 5.1 months
- Time to progression (months) (CLL patients; Patient 5, daily dose 400 mg): 8.2 months
- Time to progression (months) (CLL patients; Patient 6, daily dose 1200 mg then 400 mg): 22.8 months

Compound: COC(=O)C[C@H](NC(=O)[C@H](C)NC(=O)[C@@H](NC(=O)OCc1ccccc1)C(C)C)C(=O)CF [zVAD] (Cbz-Val-Ala-Asp(OMe)-CH2F)
- prevention of venetoclax impact on OXPHOS (OCI-Ly1-S cells [3]; 1 h pre-treatment with zVAD-FMK before venetoclax): not fully prevented

Compound: CC[C@H]1/C=C/C=C/C[C@@H](C)[C@H](O)[C@@](C)(O)C(=O)[C@@H](C)[C@H](O)[C@@H](C)C(=O)[C@@H](C)[C@H](O)[C@@H](C)/C=C/C(=O)O[C@@H]2[C@H](C)[C@H](CC1)O[C@]1(CC[C@H](C)[C@H](C[C@@H](C)O)O1)[C@H]2C [oligomycin]
- restoration of venetoclax sensitivity (OCI-Ly1-R cells): restore sensitivity to venetoclax
- sensitivity to the combination with venetoclax vs control cells [4]: more sensitive

Compound: Cc1c(-c2c(-c3ccc(F)o3)sc3ncnc(O[C@H](Cc4ccccc4OCc4ccnn4CC(F)(F)F)C(=O)O)c23)ccc(OCCN2CCN(C)CC2)c1Cl [S63845]
- combination index (synergy with venetoclax) (OCI-Ly1-S cells [1]; combination with venetoclax, OCI-Ly1-S cells, Chou-Talalay method): < 1
- synergy with venetoclax (OCI-Ly1-R cells; OCI-Ly-R cells): synergized
- restoration of venetoclax sensitivity (OCI-Ly1-R cells): restore venetoclax sensitivity
